# Experimental data as given in PubChem BioAssay AID256 (DTP/NCI, 2004).
# Values joined by “and” are separate entries in the source; they are usually repeats but may differ in a detail not shown here. Equal entries are not always repeated. Toxic doses and inconclusive results are not listed.
# System: CD2F1 mice, L1210 leukemia ip, survival T/C
# Experiment: NCI In Vivo Anticancer Drug Screen. Data for tumor model L1210 Leukemia (intraperitoneal) in CD2F1 (CDF1) mice
# Conditions: higher = longer survival
# Method in brief: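 Tumor-bearing mice (transplanted tumor) were split into treated and vehicle control groups, and the measured endpoint of each treated group was divided by that of its vehicle controls.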
# [1] = endpoint: mean survival time, dose: 100.0 mg/kg/injection, schedule: Q04DX002 (ip), vehicle: saline with Tween-80
# [2] = endpoint: mean survival time, dose: 50.0 mg/kg/injection, schedule: Q04DX003 (ip), vehicle: saline with Tween-80
# [3] = endpoint: mean survival time, dose: 50.0 mg/kg/injection, schedule: Q01DX009 (ip), vehicle: saline with Tween-80
# [4] = endpoint: mean survival time, dose: 100.0 mg/kg/injection, schedule: Q01DX009 (ip), vehicle: saline with Tween-80
# [5] = endpoint: mean survival time, dose: 100.0 mg/kg/injection, schedule: Q04DX003 (ip), vehicle: saline with Tween-80
# [6] = endpoint: mean survival time, dose: 200.0 mg/kg/injection, schedule: Q04DX003 (ip), vehicle: saline with Tween-80
# [7] = endpoint: mean survival time, dose: 400.0 mg/kg/injection, schedule: Q04DX003 (ip), vehicle: saline with Tween-80
# [8] = endpoint: mean survival time, dose: 50.0 mg/kg/injection, schedule: Q01DX009 (ip), vehicle: Klucel (hydroxypropylcellulose) (HPC)
# [9] = endpoint: mean survival time, dose: 100.0 mg/kg/injection, schedule: Q01DX009 (ip), vehicle: Klucel (hydroxypropylcellulose) (HPC)
# [10] = endpoint: mean survival time, dose: 200.0 mg/kg/injection, schedule: Q01DX009 (ip), vehicle: Klucel (hydroxypropylcellulose) (HPC)
# [11] = endpoint: mean survival time, dose: 200.0 mg/kg/injection, schedule: Q01DX009 (ip), vehicle: saline with Tween-80
# [12] = endpoint: mean survival time, dose: 400.0 mg/kg/injection, schedule: Q01DX009 (ip), vehicle: saline with Tween-80
# [13] = endpoint: mean survival time, dose: 100.0 mg/kg/injection, schedule: Q01DX009 (ip), vehicle: other
# [14] = endpoint: mean survival time, dose: 200.0 mg/kg/injection, schedule: Q01DX009 (ip), vehicle: other
# [15] = endpoint: mean survival time, dose: 400.0 mg/kg/injection, schedule: Q01DX009 (ip), vehicle: other
structure (smiles),measurement,setting,value
Cc1cccc(NC(=O)COc2c(C)cc(Cl)cc2Cl)c1,T/C,[1],98 % of control
same,T/C,"endpoint: mean survival time, dose: 200.0 mg/kg/injection, schedule: Q04DX002 (ip), vehicle: saline with Tween-80",94 % of control
same,T/C,"endpoint: mean survival time, dose: 400.0 mg/kg/injection, schedule: Q04DX002 (ip), vehicle: saline with Tween-80",90 % of control
CC1(C)N=C(N)N=C(N)N1c1ccc(Cl)c(C(F)(F)F)c1,T/C,"endpoint: mean survival time, dose: 25.0 mg/kg/injection, schedule: Q04DX003 (ip), vehicle: saline with Tween-80",109 % of control
same,T/C,[2],124 % of control
O=S(=O)(CCl)OCCCl,T/C,"endpoint: mean survival time, dose: 6.25 mg/kg/injection, schedule: Q01DX009 (ip), vehicle: saline with Tween-80",101 % of control
same,T/C,"endpoint: mean survival time, dose: 12.5 mg/kg/injection, schedule: Q01DX009 (ip), vehicle: saline with Tween-80",115 % of control and 117 % of control
same,T/C,"endpoint: mean survival time, dose: 25.0 mg/kg/injection, schedule: Q01DX009 (ip), vehicle: saline with Tween-80",120 % of control
same,T/C,[3],193 % of control
same,T/C,[4],86 % of control
same,T/C,"endpoint: median survival time, dose: 6.25 mg/kg/injection, schedule: Q01DX009 (ip), vehicle: saline with Tween-80",101 % of control and 108 % of control
same,T/C,"endpoint: median survival time, dose: 12.5 mg/kg/injection, schedule: Q01DX009 (ip), vehicle: saline with Tween-80",100 % of control and 104 % of control
same,T/C,"endpoint: median survival time, dose: 50.0 mg/kg/injection, schedule: Q01DX009 (ip), vehicle: saline with Tween-80",120 % of control
same,T/C,"endpoint: median survival time, dose: 100.0 mg/kg/injection, schedule: Q01DX009 (ip), vehicle: saline with Tween-80",173 % of control
[NH2-].[NH2-].[NH2-].[NH2-].[NH2-].[NH2-].[Ru+6],T/C,"endpoint: mean survival time, dose: 12.5 mg/kg/injection, schedule: Q04DX002 (ip), vehicle: saline",86 % of control
CCc1cc(CSc2ccc(Cl)cc2)ccc1N,T/C,[5],102 % of control
same,T/C,[6],100 % of control
same,T/C,[7],98 % of control
Clc1cc(CBr)c2ccccc2n1,T/C,[1],101 % of control
N=C(N)c1ccc(OCCCCOc2ccc(N)cc2)cc1,T/C,[8],101 % of control
same,T/C,[9],94 % of control
same,T/C,[10],119 % of control
O.O.O.O.[Fe].[Fe].[Fe].[NH-]c1c(C(=O)O)ncn1C1[OH+]C(CO)C(O)C1O.[NH-]c1c(C(=O)O)ncn1C1[OH+]C(CO)C(O)C1O (stereo unspecified),T/C,"endpoint: mean survival time, dose: 12.5 mg/kg/injection, schedule: Q01DX005 (ip), vehicle: distilled water + Tween-80",94 % of control
same,T/C,"endpoint: mean survival time, dose: 25.0 mg/kg/injection, schedule: Q01DX005 (ip), vehicle: distilled water + Tween-80",97 % of control
same,T/C,"endpoint: mean survival time, dose: 50.0 mg/kg/injection, schedule: Q01DX005 (ip), vehicle: distilled water + Tween-80",103 % of control
same,T/C,"endpoint: mean survival time, dose: 200.0 mg/kg/injection, schedule: Q01DX005 (ip), vehicle: distilled water + Tween-80",88 % of control
Oc1ccc(C(c2ccc(O)cc2)C(Cl)(Cl)Cl)cc1,T/C,"endpoint: mean survival time, dose: 100.0 mg/kg/injection, schedule: Q04DX003 (ip), vehicle: Klucel (hydroxypropylcellulose) (HPC)",101 % of control
same,T/C,"endpoint: mean survival time, dose: 200.0 mg/kg/injection, schedule: Q04DX003 (ip), vehicle: Klucel (hydroxypropylcellulose) (HPC)",101 % of control
same,T/C,"endpoint: mean survival time, dose: 400.0 mg/kg/injection, schedule: Q04DX003 (ip), vehicle: Klucel (hydroxypropylcellulose) (HPC)",93 % of control
COc1ccc(OC)c2c1CCC(O)(C#N)C2 (stereo unspecified),T/C,"endpoint: mean survival time, dose: 12.5 mg/kg/injection, schedule: Q01DX009 (ip), vehicle: water",98 % of control
same,T/C,"endpoint: mean survival time, dose: 25.0 mg/kg/injection, schedule: Q01DX009 (ip), vehicle: water",89 % of control
Cc1c(Cl)c(Cl)c(Cl)c(Cl)c1Cl,T/C,[4],93 % of control
same,T/C,[11],93 % of control
same,T/C,[12],92 % of control
CC1OC(=O)C2(C(C)C)CC12 (stereo unspecified),T/C,"endpoint: mean survival time, dose: 9.5 mg/kg/injection, schedule: Q01DX001 (ip), vehicle: other",103 % of control
same,T/C,"endpoint: mean survival time, dose: 19.0 mg/kg/injection, schedule: Q01DX001 (ip), vehicle: other",106 % of control
[Cl][Pt+2][Cl].[NH-]C(Cc1ccc(O)cc1)C(=O)O.[NH-]C(Cc1ccc(O)cc1)C(=O)O (stereo unspecified),T/C,"endpoint: mean survival time, dose: 12.5 mg/kg/injection, schedule: Q04DX003 (ip), vehicle: saline with Tween-80",95 % of control
same,T/C,[2],97 % of control
same,T/C,[5],95 % of control
CCC(CC)n1c(C)cc(=O)n1C(CC)CC,T/C,"endpoint: mean survival time, dose: 5.0 mg/kg/injection, schedule: Q01DX001 (ip), vehicle: saline",97 % of control
same,T/C,"endpoint: mean survival time, dose: 10.0 mg/kg/injection, schedule: Q01DX001 (ip), vehicle: saline",97 % of control
same,T/C,"endpoint: mean survival time, dose: 20.0 mg/kg/injection, schedule: Q01DX001 (ip), vehicle: saline",95 % of control
CCOc1ccc2cc(S(=O)(=O)O)ccc2c1N,T/C,"endpoint: mean survival time, dose: 100.0 mg/kg/injection, schedule: Q04DX003 (ip), vehicle: saline",93 % of control
same,T/C,"endpoint: mean survival time, dose: 200.0 mg/kg/injection, schedule: Q04DX003 (ip), vehicle: saline",95 % of control
same,T/C,"endpoint: mean survival time, dose: 400.0 mg/kg/injection, schedule: Q04DX003 (ip), vehicle: saline",103 % of control
C=CCC(C(=O)O)(c1ccccc1)c1ccccc1,T/C,[8],95 % of control
same,T/C,[9],98 % of control
same,T/C,[10],98 % of control
c1ccc2c(c1)sc1cc3c(cc12)CCCC3,T/C,"endpoint: mean survival time, dose: 7.9 mg/kg/injection, schedule: Q04DX003 (ip), vehicle: other",93 % of control
same,T/C,"endpoint: mean survival time, dose: 15.7 mg/kg/injection, schedule: Q04DX003 (ip), vehicle: other",93 % of control
same,T/C,"endpoint: mean survival time, dose: 31.3 mg/kg/injection, schedule: Q04DX003 (ip), vehicle: other",93 % of control
same,T/C,"endpoint: mean survival time, dose: 62.5 mg/kg/injection, schedule: Q04DX003 (ip), vehicle: other",93 % of control
same,T/C,"endpoint: mean survival time, dose: 125.0 mg/kg/injection, schedule: Q04DX003 (ip), vehicle: other",93 % of control
O=C(Nc1cccc(C2=NCCN2)c1)c1ccc(C(=O)Nc2cccc(C3=NCCN3)c2)c(Cl)c1,T/C,"endpoint: mean survival time, dose: 1.0 mg/kg/injection, schedule: Q01DX009 (ip), vehicle: saline",95 % of control
same,T/C,"endpoint: mean survival time, dose: 2.0 mg/kg/injection, schedule: Q01DX009 (ip), vehicle: saline",92 % of control
same,T/C,"endpoint: mean survival time, dose: 4.0 mg/kg/injection, schedule: Q01DX009 (ip), vehicle: saline",98 % of control
same,T/C,"endpoint: mean survival time, dose: 8.0 mg/kg/injection, schedule: Q01DX009 (ip), vehicle: saline",113 % of control
COc1ccc(C2OC23CC(C)(C)c2ccccc2C3=O)cc1 (stereo unspecified),T/C,[13],107 % of control
same,T/C,[14],100 % of control
same,T/C,[15],91 % of control
CCCCC(NC(=O)C(C)NC(=O)OCc1ccccc1)C(=O)O (stereo unspecified),T/C,[5],98 % of control
same,T/C,[6],101 % of control
same,T/C,[7],98 % of control
O=C(C(=Nc1ccccc1)c1ccccc1)c1ccccc1,T/C,[3],100 % of control
same,T/C,[4],97 % of control
same,T/C,[11],97 % of control
CC[C@H]1CN2CCc3cc(OC)c(OC)cc3[C@@H]2C[C@@H]1C[C@H]1NCCc2cc(O)c(OC)cc21,T/C,"endpoint: mean survival time, dose: 0.5 mg/kg/injection, schedule: Q01DX015 (ip), vehicle: saline",107 % of control
same,T/C,"endpoint: mean survival time, dose: 1.0 mg/kg/injection, schedule: Q01DX015 (ip), vehicle: saline",110 % of control
same,T/C,"endpoint: mean survival time, dose: 2.0 mg/kg/injection, schedule: Q01DX015 (ip), vehicle: saline",122 % of control
same,T/C,"endpoint: mean survival time, dose: 8.0 mg/kg/injection, schedule: Q01DX015 (ip), vehicle: saline",115 % of control
same,T/C,"endpoint: mean survival time, dose: 16.0 mg/kg/injection, schedule: Q01DX015 (ip), vehicle: saline",89 % of control
O=C(C=C(C(F)(F)F)C(F)(F)F)c1ccc(Cl)c2ccccc12,T/C,[5],105 % of control
NNc1ncnc2c1cnn2C1OC(CO)C(O)C1O (stereo unspecified),T/C,"endpoint: mean survival time, dose: 12.5 mg/kg/injection, schedule: Q01DX009 (ip), vehicle: other",103 % of control
same,T/C,"endpoint: mean survival time, dose: 25.0 mg/kg/injection, schedule: Q01DX009 (ip), vehicle: other",103 % of control
same,T/C,"endpoint: mean survival time, dose: 50.0 mg/kg/injection, schedule: Q01DX009 (ip), vehicle: other",103 % of control
same,T/C,[13],110 % of control
same,T/C,[14],112 % of control
same,T/C,[15],89 % of control
CC(=Nc1ccccc1)c1cccs1,T/C,[5],95 % of control
same,T/C,[6],101 % of control
same,T/C,[7],87 % of control
NC(=O)Cn1cnnn1,T/C,"endpoint: mean survival time, dose: 100.0 mg/kg/injection, schedule: Q01DX001 (ip), vehicle: saline with Tween-80",102 % of control
same,T/C,[4],98 % of control
same,T/C,[5],101 % of control
same,T/C,"endpoint: mean survival time, dose: 200.0 mg/kg/injection, schedule: Q01DX001 (ip), vehicle: saline with Tween-80",100 % of control
same,T/C,[11],101 % of control
same,T/C,[6],95 % of control
same,T/C,"endpoint: mean survival time, dose: 400.0 mg/kg/injection, schedule: Q01DX001 (ip), vehicle: saline with Tween-80",96 % of control
same,T/C,[12],98 % of control
same,T/C,[7],95 % of control
O=C(C(=O)N1CC2C=CC1C2)c1c[nH]c2ccccc12 (stereo unspecified),T/C,[4],101 % of control
same,T/C,[5],102 % of control
same,T/C,[11],97 % of control
same,T/C,[6],97 % of control
same,T/C,[12],101 % of control
same,T/C,[7],92 % of control
